According to patent EP2170322B1, “METHODS OF MODIFYING AMYLOID ß OLIGOMERS USING NON-[…] COMPOUNDS” (Acumen Pharmaceuticals, Inc., priority 2007, dated 2009):

Biological target: T1, Aβ1-42 (Homo sapiens, UniProt P05067)
T1 construct: containing 0.2 µM FITC-Aβ(1-42) and 0.8 µM Aβ(1-42)
Assay: FRET assay of Aβ1-42 oligomer (ADDL) assembly inhibition
Assay type: biochemical
Details: for IC50: assay of Example 1, 0.2 µM FITC-Aβ(1-42) and 0.8 µM Aβ(1-42), 37°C, six concentrations from about 30 µM to about 0.05 µM
Source text: Fluorescence (or Förster) Resonance Energy Transfer (FRET) is a distance-dependent, non-radiative transfer of energy in which the de-excitation of one fluorophore (donor) is coupled to excitation of another fluorophore (acceptor). FRET occurs if (1) the quantum of energy emitted by a donor fluorophore corresponds to an acceptor fluorophore's excitation energy, (2) the orientations of donor and acceptor transition dipoles are nearly parallel and (3) the donor fluorescent emission spectrum overlaps the acceptor absorption spectrum. In this assay, assembly of Aβ1-42 oligomer formation is monitored by FRET using N-terminal conjugates of fluorescein-Aβ1-42 as both the donor and acceptor fluorophore (fluorescein-fluorescein Ro~ 45 Ǻ). Aβ1-42 monomers assembling into oligomeric species results in a decrease of fluorescence as the fluorescein labeled Aβ1-42 peptides become proximal to each other and FRET efficiency increases. Inhibition of Aβ1-42 assembly is observed as the absence or attenuation of fluorescein quenching. FRET and FP assays are performed in 384-well Coming Non-Binding Surface, black, opaque microtiter plates, and the assay buffer consists of 50 mM MOPS-Tris (pH 8.0) with 100 mM MgCl2. The assay volume, containing 0.2 µM FITC-Aβ(1-42) and 0.8 µM Aβ(1-42), is 50 µl and the temperature is 37°C. ADDL assembly is monitored on a Tecan GENios Pro plate reader, exciting at a wavelength of 485 nm and detecting emission at a wavelength of 515 nm. Kinetic traces are collected by recording fluorescence intensity and polarization readings every five minutes over about a three to about a six-hour time course. […] Positive control reactions contain all buffer components in the absence of added small molecule or antibody reagents. To test for ADDL assembly inhibition, the non-peptidic compound was incubated with the peptide mixture at six concentrations from about 30 µM decreasing to about 0.05 µM.

T1 sequence (P05067 672-713 limits assumed): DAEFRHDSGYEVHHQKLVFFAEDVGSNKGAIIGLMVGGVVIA

| SMILES | inhibition of Aβ1-42 oligomer assembly (Test Compound A ranging from 0.05 to 3 mM, FIG. 1) | IC50 | inhibition of Aβ1-42 monomer assembly into Aβ oligomers (standard FRET assay conditions of Example 1, comparative example, FIG 2) |
| --- | --- | --- | --- |
| NCCCS(=O)(=O)O [Alzhemed, 3-amino-1-propanesulfonic acid, reference compound] |  |  | inability |
| COc1ccccc1NC(=O)C(=O)N/N=C(/CC(=O)c1cccs1)C(F)(F)F [Compound 1, N-(2-Methoxy-phenyl)-2-oxo-2-{N'-[3-oxo-3-thiophen-2-yl-1-trifluoromethyl-prop-(Z)-ylidene]-hydrazino}-acetamide] |  | 3.9 µM |  |
| O=C(N/N=C/c1ccc2ccccc2c1O)c1ccccc1O [Compound 6] |  | 3.8 µM |  |
| CCOC(=O)c1c(NC(=O)C(=O)N/N=C/c2c(O)ccc3ccccc23)sc2c1CCC(C)C2 (centres unmarked) [Compound 3, 2-{[1-(2-Hydroxynaphthalen-1-yl)-meth-(E)-ylidene-hydrazinooxalyl]-amino}-6-methyl-4,5,6,7-tetrahydro-benzo[b]thiophene-3-carboxylic acid ethyl ester] |  | 4.4 µM |  |

Further molecules by falling IC50, results first:

| inhibition of Aβ1-42 oligomer assembly (Test Compound A ranging from 0.05 to 3 mM, FIG. 1) | IC50 | inhibition of Aβ1-42 monomer assembly into Aβ oligomers (standard FRET assay conditions of Example 1, comparative example, FIG 2) | SMILES |
| --- | --- | --- | --- |
|  | 3.5 µM |  | CCOC(=O)c1c(NC(=O)C(=O)N/N=C/c2cccc(OC)c2O)sc2c1CCC(C)C2 (centres unmarked) [Compound 2, 2-{[1-(2-Hydroxy-3-methoxy-phenyl)-meth-(E)-ylidene-hydrazinooxalyl]-amino}-6-methyl-4,5,6,7-tetrahydro-benzo[b]thiophene-3-carboxylic acid ethyl ester] |
|  | 3.2 µM |  | COc1ccccc1NC(=O)C(=O)N1N=C(CC(C)C)CC1(O)C(F)(F)F (centres unmarked) [Compound 5, 2-(5-hydroxy-3-isobutyl-5-(trifluoromethyl)-4,5-dihydro-1H-pyrazol-1-yl)-N-(2-methoxyphenyl)-2-oxoacetamide] |
| dose dependent inhibition | 1.1 µM |  | CCOC(=O)c1c(NC(=O)C(=O)N/N=C/c2ccccc2O)sc2c1CCC(C)C2 (centres unmarked) [Compound 4, 2-{[1-(2-Hydroxyphenyl)-meth-(E)-ylidene-hydrazinooxalyl]-amino}-6-methyl-4,5,6,7-tetrahydro-benzo[b]thiophene-3-carboxylic acid ethyl ester] |
